{"source": "patent US7192781B2", "about": "(Pharmion Corporation, priority 2004, dated 2007)", "key": {"[1]": {"test": "Stability of 5-azacytidine in whole blood;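 note: drug level determined in plasma separated from whole blood, extracted with acetonitrile plus internal standard, then quantified by LC/MS/MS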", "conditions": "for Mean [5-aza] / % of Time 0: whole blood"}, "[2]": {"test": "Stability of 5-azacytidine stored as an acetonitrile residue at minus 70° C.", "conditions": "for % of Time 0 / Mean [5-aza]: acetonitrile residue at minus 70° C."}, "[3]": {"test": "Stability of 5-azacytidine stored in acetonitrile/plasma mixtures at different temperatures", "conditions": "for % of Fresh Prep / Mean [5-aza]: acetonitrile/plasma mixture"}, "[4]": {"conditions": "[5-aza] 15 ng/mL, Room Temp, 15 mins"}, "[5]": {"conditions": "[5-aza] 15 ng/mL, Room Temp, 30 mins"}, "[6]": {"conditions": "[5-aza] 15 ng/mL, Room Temp, 45 mins"}, "[7]": {"conditions": "[5-aza] 200 ng/mL, Ice, 15 mins"}, "[8]": {"conditions": "[5-aza] 200 ng/mL, Ice, 30 mins"}, "[9]": {"conditions": "[5-aza] 200 ng/mL, Ice, 45 mins"}, "[10]": {"conditions": "[5-aza] 200 ng/mL, Ice, 60 mins"}, "[11]": {"conditions": "[5-aza] 200 ng/mL, Room Temp, 15 mins"}, "[12]": {"conditions": "[5-aza] 200 ng/mL, Room Temp, 30 mins"}, "[13]": {"conditions": "[5-aza] 200 ng/mL, Room Temp, 45 mins"}, "[14]": {"conditions": "[5-aza] 200 ng/mL, Room Temp, 60 mins"}, "[15]": {"conditions": "[5-aza] 30 ng/mL, Freeze-thaw (minus 70° C. for 4 days followed by RT for 5.5 hours)"}, "[16]": {"conditions": "[5-aza] 400 ng/mL, Freeze-thaw (minus 70° C. for 4 days followed by RT for 5.5 hours)"}}, "data": [{"smiles": "Nc1ncn([C@@H]2O[C@H](CO)[C@@H](O)[C@H]2O)c(=O)n1", "note": "[5-azacytidine, 4-amino-1-β-D-ribofuranosyl-1,3,5-triazin-2(1H)-one]", "values": [{"measurement": "degradation in whole blood", "setting": "[1]; room temperature", "value": "rapidly degrades"}, {"measurement": "degradation in whole blood", "setting": "[1]; stored on ice, compared with room temperature", "value": "slightly reduced rate"}, {"measurement": "Mean [5-aza]", "setting": "[1]; [5-aza] 15 ng/mL, Ice, 0 mins", "value": "16.1 (N = 5) ng/mL"}, {"measurement": "% of Time 0", "setting": "[1]; [5-aza] 15 ng/mL, Ice, 15 mins", "value": 80.7, "unit": "%"}, {"measurement": "Mean [5-aza]", "setting": "[1]; [5-aza] 15 ng/mL, Ice, 15 mins", "value": "13.0 (N = 4) ng/mL"}, {"measurement": "% of Time 0", "setting": "[1]; [5-aza] 15 ng/mL, Ice, 30 mins", "value": 77.6, "unit": "%"}, {"measurement": "Mean [5-aza]", "setting": "[1]; [5-aza] 15 ng/mL, Ice, 30 mins", "value": "12.5 (N = 3) ng/mL"}, {"measurement": "% of Time 0", "setting": "[1]; [5-aza] 15 ng/mL, Ice, 45 mins", "value": 70.8, "unit": "%"}, {"measurement": "Mean [5-aza]", "setting": "[1]; [5-aza] 15 ng/mL, Ice, 45 mins", "value": "11.4 (N = 4) ng/mL"}, {"measurement": "% of Time 0", "setting": "[1]; [5-aza] 15 ng/mL, Ice, 60 mins", "value": 71.4, "unit": "%"}, {"measurement": "Mean [5-aza]", "setting": "[1]; [5-aza] 15 ng/mL, Ice, 60 mins", "value": "11.5 (N = 5) ng/mL"}, {"measurement": "Mean [5-aza]", "setting": "[1]; [5-aza] 15 ng/mL, Room Temp, 0 mins", "value": "16.1 (N = 5) ng/mL"}, {"measurement": "% of Time 0", "setting": "[1]; [4]", "value": 82.6, "unit": "%"}, {"measurement": "Mean [5-aza]", "setting": "[1]; [4]", "value": "13.3 (N = 5) ng/mL"}, {"measurement": "% of Time 0", "setting": "[1]; [5]", "value": 71.4, "unit": "%"}, {"measurement": "Mean [5-aza]", "setting": "[1]; [5]", "value": "11.5 (N = 5) ng/mL"}, {"measurement": "% of Time 0", "setting": "[1]; [6]", "value": 64.0, "unit": "%"}, {"measurement": "Mean [5-aza]", "setting": "[1]; [6]", "value": "10.3 (N = 2) ng/mL"}, {"measurement": "Mean [5-aza]", "setting": "[1]; [5-aza] 200 ng/mL, Ice, 0 mins", "value": "152.0 (N = 5) ng/mL"}, {"measurement": "% of Time 0", "setting": "[1]; [7]", "value": 79.6, "unit": "%"}, {"measurement": "Mean [5-aza]", "setting": "[1]; [7]", "value": "121.0 (N = 5) ng/mL"}, {"measurement": "% of Time 0", "setting": "[1]; [8]", "value": 73.0, "unit": "%"}, {"measurement": "Mean [5-aza]", "setting": "[1]; [8]", "value": "111.0 (N = 5) ng/mL"}, {"measurement": "% of Time 0", "setting": "[1]; [9]", "value": 72.4, "unit": "%"}, {"measurement": "Mean [5-aza]", "setting": "[1]; [9]", "value": "110.0 (N = 5) ng/mL"}, {"measurement": "% of Time 0", "setting": "[1]; [10]", "value": 57.2, "unit": "%"}, {"measurement": "Mean [5-aza]", "setting": "[1]; [10]", "value": "87.0 (N = 5) ng/mL"}, {"measurement": "Mean [5-aza]", "setting": "[1]; [5-aza] 200 ng/mL, Room Temp, 0 mins", "value": "152.0 (N = 5) ng/mL"}, {"measurement": "% of Time 0", "setting": "[1]; [11]", "value": 73.4, "unit": "%"}, {"measurement": "Mean [5-aza]", "setting": "[1]; [11]", "value": "111.6 (N = 5) ng/mL"}, {"measurement": "% of Time 0", "setting": "[1]; [12]", "value": 57.8, "unit": "%"}, {"measurement": "Mean [5-aza]", "setting": "[1]; [12]", "value": "87.9 (N = 5) ng/mL"}, {"measurement": "% of Time 0", "setting": "[1]; [13]", "value": 37.3, "unit": "%"}, {"measurement": "Mean [5-aza]", "setting": "[1]; [13]", "value": "56.7 (N = 5) ng/mL"}, {"measurement": "% of Time 0", "setting": "[1]; [14]", "value": 21.7, "unit": "%"}, {"measurement": "Mean [5-aza]", "setting": "[1]; [14]", "value": "33.0 (N = 5) ng/mL"}, {"measurement": "time stable as acetonitrile residue", "setting": "[2]; about minus 70° C., stable = within ±20% of freshly prepared sample", "value": "at least 14 months"}, {"measurement": "% of Time 0", "setting": "[2]; [5-aza] 30 ng/mL, 4 Weeks", "value": 90.0, "unit": "%"}, {"measurement": "Mean [5-aza]", "setting": "[2]; [5-aza] 30 ng/mL, 4 Weeks", "value": "27.1 (N = 6) ng/mL"}, {"measurement": "% of Time 0", "setting": "[2]; [5-aza] 30 ng/mL, 6 Months", "value": 105.3, "unit": "%"}, {"measurement": "Mean [5-aza]", "setting": "[2]; [5-aza] 30 ng/mL, 6 Months", "value": "31.7 (N = 6) ng/mL"}, {"measurement": "% of Time 0", "setting": "[2]; [5-aza] 30 ng/mL, 7 Days", "value": 93.7, "unit": "%"}, {"measurement": "Mean [5-aza]", "setting": "[2]; [5-aza] 30 ng/mL, 7 Days", "value": "28.2 (N = 6) ng/mL"}, {"measurement": "% of Time 0", "setting": "[2]; [5-aza] 30 ng/mL, 14 Days", "value": 97.3, "unit": "%"}, {"measurement": "Mean [5-aza]", "setting": "[2]; [5-aza] 30 ng/mL, 14 Days", "value": "29.3 (N = 6) ng/mL"}, {"measurement": "% of Time 0", "setting": "[2]; [5-aza] 30 ng/mL, 14 Months", "value": 111.0, "unit": "%"}, {"measurement": "Mean [5-aza]", "setting": "[2]; [5-aza] 30 ng/mL, 14 Months", "value": "33.4 (N = 5) ng/mL"}, {"measurement": "% of Time 0", "setting": "[2]; [5-aza] 30 ng/mL, 15 Weeks", "value": 100.7, "unit": "%"}, {"measurement": "Mean [5-aza]", "setting": "[2]; [5-aza] 30 ng/mL, 15 Weeks", "value": "30.3 (N = 6) ng/mL"}, {"measurement": "Mean [5-aza]", "setting": "[2]; [5-aza] 30 ng/mL, Time 0", "value": "30.1 (N = 6) ng/mL"}, {"measurement": "% of Time 0", "setting": "[2]; [5-aza] 400 ng/mL, 4 Weeks", "value": 95.6, "unit": "%"}, {"measurement": "Mean [5-aza]", "setting": "[2]; [5-aza] 400 ng/mL, 4 Weeks", "value": "365 (N = 5) ng/mL"}, {"measurement": "% of Time 0", "setting": "[2]; [5-aza] 400 ng/mL, 6 Months", "value": 97.4, "unit": "%"}, {"measurement": "Mean [5-aza]", "setting": "[2]; [5-aza] 400 ng/mL, 6 Months", "value": "372 (N = 5) ng/mL"}, {"measurement": "% of Time 0", "setting": "[2]; [5-aza] 400 ng/mL, 7 Days", "value": 98.7, "unit": "%"}, {"measurement": "Mean [5-aza]", "setting": "[2]; [5-aza] 400 ng/mL, 7 Days", "value": "377 (N = 6) ng/mL"}, {"measurement": "% of Time 0", "setting": "[2]; [5-aza] 400 ng/mL, 14 Days", "value": 91.6, "unit": "%"}, {"measurement": "Mean [5-aza]", "setting": "[2]; [5-aza] 400 ng/mL, 14 Days", "value": "350 (N = 6) ng/mL"}, {"measurement": "% of Time 0", "setting": "[2]; [5-aza] 400 ng/mL, 14 Months", "value": 115.9, "unit": "%"}, {"measurement": "Mean [5-aza]", "setting": "[2]; [5-aza] 400 ng/mL, 14 Months", "value": "443 (N = 5) ng/mL"}, {"measurement": "% of Time 0", "setting": "[2]; [5-aza] 400 ng/mL, 15 Weeks", "value": 103.9, "unit": "%"}, {"measurement": "Mean [5-aza]", "setting": "[2]; [5-aza] 400 ng/mL, 15 Weeks", "value": "397 (N = 6) ng/mL"}, {"measurement": "Mean [5-aza]", "setting": "[2]; [5-aza] 400 ng/mL, Time 0", "value": "382 (N = 6) ng/mL"}, {"measurement": "measured 5-azacytidine concentration, deviation from initial concentration in the plasma sample", "setting": "[2]; samples prepared according to the methods, LC/MS/MS", "value": "≤ 20", "unit": "%"}, {"measurement": "time stable in acetonitrile layer over plasma layer", "setting": "[3]; about minus 70° C.", "value": "at least 4 days"}, {"measurement": "time stable in acetonitrile layer over plasma layer (acetonitrile/plasma solution)", "setting": "[3]; about room temperature, stable = within ±20% of freshly prepared sample", "value": "at least 3 hours"}, {"measurement": "% of Fresh Prep", "setting": "[3]; [5-aza] 30 ng/mL, 3 hours RT", "value": 98.7, "unit": "%"}, {"measurement": "Mean [5-aza]", "setting": "[3]; [5-aza] 30 ng/mL, 3 hours RT", "value": "29.8 (N = 6) ng/mL"}, {"measurement": "% of Fresh Prep", "setting": "[3]; [15]", "value": 103.3, "unit": "%"}, {"measurement": "Mean [5-aza]", "setting": "[3]; [15]", "value": "31.2 (N = 6) ng/mL"}, {"measurement": "Mean [5-aza]", "setting": "[3]; [5-aza] 30 ng/mL, Fresh prep.", "value": "30.2 (N = 6) ng/mL"}, {"measurement": "% of Fresh Prep", "setting": "[3]; [5-aza] 400 ng/mL, 3 hours RT", "value": 89.4, "unit": "%"}, {"measurement": "Mean [5-aza]", "setting": "[3]; [5-aza] 400 ng/mL, 3 hours RT", "value": "371 (N = 6) ng/mL"}, {"measurement": "% of Fresh Prep", "setting": "[3]; [16]", "value": 88.4, "unit": "%"}, {"measurement": "Mean [5-aza]", "setting": "[3]; [16]", "value": "367 (N = 6) ng/mL"}, {"measurement": "Mean [5-aza]", "setting": "[3]; [5-aza] 400 ng/mL, Fresh prep.", "value": "415 (N = 6) ng/mL"}, {"measurement": "time stable in acetonitrile/plasma solution", "setting": "[3]; minus 70° C. with one freeze-thaw cycle of 5.5 hours at room temperature, stable = within ±20% of freshly prepared sample", "value": "at least 4 days"}]}]}
